Values quoted from earlier work as cited in US20170037184A1, “VITAMIN E-BASED NANOCARRIERS FOR DRUG DELIVERY AND METHODS OF MAKING AND USING THE SAME” (THE CORPORATION OF MERCER UNIVERSITY, priority 2014, published 2017).

Details: ethylenediamine group of DET conjugated to polyasparagine

For `NCCNCCN` [DET, diethylenetriamine], the pKa1 is listed as 9.5 and the pKa2 is listed as 6.0.
